Measured values from US7776833B2, “Use of cyclic bioisosters of purine system derivatives for treating diseases produced by disorders of niterergic and dopaminergic systems” (priority 2003, dated 2010).

Columns and labels:
Format in all cases: in vivo, Wistar rats
[1] = tested on: physical dependence from morphine (morphine abstinence); assay: Morphine abstinence syndrome, signs scored in the open field test
Protocol: Thirty six hours after the last injection selected motor and autonomice parameters which are specific symptoms of abstinence were monitored in the <<open field>> test (an arena with a diameter of 120 cm and wall height of 40 cm).
Med., 2002, V.29, p.1-6.). The observable signs were recorded quantitatively (if it was possible) with further assignment of an index to each sign (depending on the specific feature of the sign) and calculation of the sum of scores. The expression of the abstinence syndrome was presented as a sum of scores. The results were processed using nonparametric statistical analysis based on the Mann-Whitney test.

[2] = tested on: nitrites and nitrates (NOx-); assay: Measurement of nitrates/nitrites (NOx-) in brain regions after the morphine abstinence experiment
Protocol: (§1) After the above experiments the rat brains were isolated and immediately placed in the ice cold 0.9% solution of sodium chloride. After cooling the following structures were isolated from the brain: cerebral cortex, hippocampus, mesencephalon, striatum, brainstem, hypothalamus and cerebellum. The isolated tissue was homogenized in a Potter S homogenizer for 3 minutes at 1500 rpm in 4-5 volumes of 20 mM HEPES (pH 7.5) at 4° C. The supernatants were centrifuged for 30 minutes at 11000 g at 4° C., and aliquots of the obtained supernatants were taken for determining nitrates and nitrites (NOx-), while the remaining part was mixed with cooled 20 mM of HEPES (pH 7.5), containing 0.5 mM ethylenediamine tetraacetate (EDTA), 1 mM dithiotreitol (DDT), 1 mM phenylmethylsulfonyl fluoride (PMSF), aprotinine and leupeptine at a concentration of 5 μg/ml, this mixture being used for determining nitric oxide synthase (NOS) activity.
To estimate the intensity of metabolism of nitric oxide in rats, quantitative determination of stable metabolites of nitrogen oxide-nitrites and nitrates (NOx-) was performed using a fluorometric method by fluorescence of naphthotriazole, a product of reaction of 2,3- diaminonaphthalene (DAN) and nitrite in an acidic medium (Misko T. R., Schilling R. J., Salvemini D. et al. A fluorometric assay for the measurement of nitrite in biological samples. Anal. Biochem., 1993, V. 214, p.11-16) with modifications (Lei B., Adachi N., Nagaro T., Arai T. Measurement of total nitric oxide metabolite (NO (x) (-)) levels in vivo. Brain. Res. Protoc., 1999, V. 4, p. 415-419).
The supernatants of brain deproteinized at 100° C. were placed in a nitrite recovery system containing 0.125 unit/ml of nitrate reductase, 25 μM NADPH and 25 μM FAD prepared in 20 mM Tris-HCl buffer pH 7.6 and incubated for 30 minutes at 37° C. For oxidation of NADPH a lactate dehydrogenase (LDH)/pyruvate system was used. Then 316.0 μM DAN solution in 0.62 M HCl was added and the mixture was incubated for 10 minutes in dark. For stabilization of fluorescence of the formed naphthotriazole, 280 mM NaOH was added. The fluorescence intensity was measured using spectrofluorometer Hitachi F-3000 at a wavelength of excitation 365 nm and emission 405 nm. To calculate the concentration of NOx- in the brain a standard solution of sodium nitrate was used. The concentration of NOx- was expressed in nmol/mg of protein.
(§2) The content of protein in the samples was determined by the Bradford method (Bradford M. M. A rapid and sensitive method for quantitation of microgram quantities of protein using the principle of protein binding . Anal. Biochem., 1976, V. 72, p. 248-254) using Coumassi dye. The statistical analysis was performed using methods appropriate for respective experiments. The data are expressed as mean±standard error of mean.

[3] = tested on: nitric oxide synthase (NOS); assay: Nitric oxide synthase activity in brain regions, radiometric [3H]L-citrulline method; conditions: 3 x 20 mg/kg intramuscularly
Protocol: as §1
The activity of nitric oxide synthase (NOS) was determined using a radiometric method by the rate of L-citrulline accumulation in a reaction of [^3H] L-arginine oxidation catalyzed by NOS (Bredt M., Snyder S. Nitric oxide mediates glutamate-linked enhancement of cGMP levels in the cerebellum. Proc. Natl. Acad. Sci., USA, 1989, V.86, p.9030-9033). The formation of L-citrulline in this reaction is equivalent to a biosynthesis of nitric oxide.
The reaction was initiated by adding brain supernatant in the reaction medium containing 2 μCi/ml of [3H] L-arginine, 20 mM HEPES (pH 7.4), 0.2 mM CaCl2, 5 μM FAD, 5 μM FMN, 1 mM NADPH, 50 μM of BH4. After 15-60 minutes of incubation at 37° C. a suspension of Dowex 50WX8-400 (Na^+-form), which sorbs unreacted [^3H]L-arginine, but not [^3H] L-citrulline was added to the samples. After the sorption the radioactivity of the samples was determined on a scintillation counter SL-4000 (“Intertechnique”). The activity of Ca^2+-dependent and Ca^2+-independent NOS isoforms was determined by the difference of rates of [^3H]L-citrulline formation in three parallel samples containing 2 mM EDTA (Ca^2+ chelator), 2 mM EDTA+2 mM L-NAME (inhibitor all NOS isoforms) or without inhibitors. The enzyme activity was expressed in rnol [^3H]L-citrulline acumulated per 1 minute on 1 mg of supernatant protein.
as §2

[4] = Morphine − (morphine + compound), compound 3 x 20 mg/kg intramuscularly, one value for the three compounds
[5] = Groups Nos. 3-14, compound without morphine, 3 x 20 mg/kg intramuscularly, one value for all 12 compounds
[6] = Morphine + compound, 3 x 20 mg/kg intramuscularly, one value for the three compounds
[7] = Groups Nos. 3-14, compound without morphine, one value for all 12 compounds
[8] = Morphine + compound, one value for the three compounds
[9] = Control − morphine, open field, 36 h after last morphine injection

O=c1[nH]n([C@@H]2O[C@H](CO)[C@@H](O)[C@H]2O)c(=O)c2ncccc12.[Na] [Compound 1, sodium salt of 7-(β-D-ribofuranosile)pyrido[2,3-d]-6H-pyridazine-5,8-dione]
Authentic differences (ξ-square criterion) in appearance of signs of abstinence: <<Wet dog>> shakes [1, 4]: 1.0000
Authentic differences (ξ-square criterion) in appearance of signs of abstinence: Aggression [1, 4]: 0.8327
Authentic differences (ξ-square criterion) in appearance of signs of abstinence: Convulsions [1, 4]: 0.7821
Authentic differences (ξ-square criterion) in appearance of signs of abstinence: Diarrhea [1, 4]: 0.0046
Authentic differences (ξ-square criterion) in appearance of signs of abstinence: Dyspnea [1, 4]: 0.0722
Authentic differences (ξ-square criterion) in appearance of signs of abstinence: Forelimb jogging [1, 4]: 0.7821
Authentic differences (ξ-square criterion) in appearance of signs of abstinence: Grit with teeth [1, 4]: 0.7144
Authentic differences (ξ-square criterion) in appearance of signs of abstinence: Mastication [1, 4]: 0.1888
Authentic differences (ξ-square criterion) in appearance of signs of abstinence: Piloerection [1, 4]: 0.1847
Authentic differences (ξ-square criterion) in appearance of signs of abstinence: Ptosis [1, 4]: 0.0201
Authentic differences (ξ-square criterion) in appearance of signs of abstinence: Rhinorrhea [1, 4]: 0.3017
Authentic differences (ξ-square criterion) in appearance of signs of abstinence: Squeak when touched [1, 4]: 0.1888
Nitrites, brainstem [2, 5]: 6.31 ± 0.58 nmol/mg of protein
Nitrites, cerebellum [2, 5]: 6.66 ± 0.63 nmol/mg of protein
Nitrites, cerebral cortex [2, 5]: 4.31 ± 0.37 nmol/mg of protein
Nitrites, hippocampus [2, 5]: 6.47 ± 0.72 nmol/mg of protein
Nitrites, hypothalamus [2, 5]: 6.77 ± 0.83 nmol/mg of protein
Nitrites, midbrain [2, 5]: 6.65 ± 0.70 nmol/mg of protein
Nitrites, striatum [2, 5]: 6.11 ± 0.29 nmol/mg of protein
Nitrites, brainstem [2, 6]: 6.57 ± 0.72 nmol/mg of protein
Nitrites, cerebellum [2, 6]: 5.46 ± 0.44 nmol/mg of protein
Nitrites, cerebral cortex [2, 6]: 4.72 ± 0.37 nmol/mg of protein
Nitrites, hippocampus [2, 6]: 5.44 ± 0.43 nmol/mg of protein
Nitrites, hypothalamus [2, 6]: 6.57 ± 0.88 nmol/mg of protein
Nitrites, midbrain [2, 6]: 5.50 ± 0.48 nmol/mg of protein
Nitrites, striatum [2, 6]: 3.57 ± 0.42 nmol/mg of protein
Activity of NOS, hippocampus [3, 7]: 3.09 ± 0.16 nmol/min/mg of protein
Activity of NOS, hypothalamus [3, 7]: 5.45 ± 0.24 nmol/min/mg of protein
Activity of NOS, midbrain [3, 7]: 2.60 ± 0.29 nmol/min/mg of protein
Activity of NOS, striatum [3, 7]: 1.26 ± 0.08 nmol/min/mg of protein
Activity of NOS, hippocampus [3, 8]: 2.70 ± 0.14 nmol/min/mg of protein
Activity of NOS, hypothalamus [3, 8]: 5.26 ± 0.28 nmol/min/mg of protein
Activity of NOS, midbrain [3, 8]: 1.83 ± 0.23 nmol/min/mg of protein
Activity of NOS, striatum [3, 8]: 1.24 ± 0.08 nmol/min/mg of protein

O=c1[nH]n([C@@H]2O[C@H](CO)[C@@H](O)[C@H]2O)c(=O)c2nccc(O)c12.[Na] [Compound 4, isodium salt of 4-hydroxy-7-(β-D-ribofuranosile)pyrido[2,3-d]-6H-pyridazine-5,8-dione]
Authentic differences (ξ-square criterion) in appearance of signs of abstinence: <<Wet dog>> shakes [1, 4]: 1.0000
Authentic differences (ξ-square criterion) in appearance of signs of abstinence: Aggression [1, 4]: 0.8327
Authentic differences (ξ-square criterion) in appearance of signs of abstinence: Convulsions [1, 4]: 0.7821
Authentic differences (ξ-square criterion) in appearance of signs of abstinence: Diarrhea [1, 4]: 0.0046
Authentic differences (ξ-square criterion) in appearance of signs of abstinence: Dyspnea [1, 4]: 0.0722
Authentic differences (ξ-square criterion) in appearance of signs of abstinence: Forelimb jogging [1, 4]: 0.7821
Authentic differences (ξ-square criterion) in appearance of signs of abstinence: Grit with teeth [1, 4]: 0.7144
Authentic differences (ξ-square criterion) in appearance of signs of abstinence: Mastication [1, 4]: 0.1888
Authentic differences (ξ-square criterion) in appearance of signs of abstinence: Piloerection [1, 4]: 0.1847
Authentic differences (ξ-square criterion) in appearance of signs of abstinence: Ptosis [1, 4]: 0.0201
Authentic differences (ξ-square criterion) in appearance of signs of abstinence: Rhinorrhea [1, 4]: 0.3017
Authentic differences (ξ-square criterion) in appearance of signs of abstinence: Squeak when touched [1, 4]: 0.1888
Nitrites, brainstem [2, 5]: 6.31 ± 0.58 nmol/mg of protein
Nitrites, cerebellum [2, 5]: 6.66 ± 0.63 nmol/mg of protein
Nitrites, cerebral cortex [2, 5]: 4.31 ± 0.37 nmol/mg of protein
Nitrites, hippocampus [2, 5]: 6.47 ± 0.72 nmol/mg of protein
Nitrites, hypothalamus [2, 5]: 6.77 ± 0.83 nmol/mg of protein
Nitrites, midbrain [2, 5]: 6.65 ± 0.70 nmol/mg of protein
Nitrites, striatum [2, 5]: 6.11 ± 0.29 nmol/mg of protein
Nitrites, brainstem [2, 6]: 6.57 ± 0.72 nmol/mg of protein
Nitrites, cerebellum [2, 6]: 5.46 ± 0.44 nmol/mg of protein
Nitrites, cerebral cortex [2, 6]: 4.72 ± 0.37 nmol/mg of protein
Nitrites, hippocampus [2, 6]: 5.44 ± 0.43 nmol/mg of protein
Nitrites, hypothalamus [2, 6]: 6.57 ± 0.88 nmol/mg of protein
Nitrites, midbrain [2, 6]: 5.50 ± 0.48 nmol/mg of protein
Nitrites, striatum [2, 6]: 3.57 ± 0.42 nmol/mg of protein
Activity of NOS, hippocampus [3, 7]: 3.09 ± 0.16 nmol/min/mg of protein
Activity of NOS, hypothalamus [3, 7]: 5.45 ± 0.24 nmol/min/mg of protein
Activity of NOS, midbrain [3, 7]: 2.60 ± 0.29 nmol/min/mg of protein
Activity of NOS, striatum [3, 7]: 1.26 ± 0.08 nmol/min/mg of protein
Activity of NOS, hippocampus [3, 8]: 2.70 ± 0.14 nmol/min/mg of protein
Activity of NOS, hypothalamus [3, 8]: 5.26 ± 0.28 nmol/min/mg of protein
Activity of NOS, midbrain [3, 8]: 1.83 ± 0.23 nmol/min/mg of protein
Activity of NOS, striatum [3, 8]: 1.24 ± 0.08 nmol/min/mg of protein

CN1CC[C@]23c4c5ccc(O)c4O[C@H]2[C@@H](O)C=C[C@H]3[C@H]1C5.Cl [morphine, morphine hydrochloride, reference compound]
Authentic differences (ξ-square criterion) in appearance of signs of abstinence: <<Wet dog>> shakes [1, 9]: 0.0002
Authentic differences (ξ-square criterion) in appearance of signs of abstinence: Aggression [1, 9]: 0.5770
Authentic differences (ξ-square criterion) in appearance of signs of abstinence: Convulsions [1, 9]: 0.0507
Authentic differences (ξ-square criterion) in appearance of signs of abstinence: Diarrhea [1, 9]: 0.0075
Authentic differences (ξ-square criterion) in appearance of signs of abstinence: Dyspnea [1, 9]: 0.0053
Authentic differences (ξ-square criterion) in appearance of signs of abstinence: Forelimb jogging [1, 9]: 0.0180
Authentic differences (ξ-square criterion) in appearance of signs of abstinence: Grit with teeth [1, 9]: 0.1266
Authentic differences (ξ-square criterion) in appearance of signs of abstinence: Piloerection [1, 9]: 0.5770
Authentic differences (ξ-square criterion) in appearance of signs of abstinence: Ptosis [1, 9]: 0.0053
Authentic differences (ξ-square criterion) in appearance of signs of abstinence: Rhinorrhea [1, 9]: 0.2994
Authentic differences (ξ-square criterion) in appearance of signs of abstinence: Squeak when touched [1, 9]: 0.0053
Nitrites, cerebellum ([2]; Group No. 2 (morphine)): 6.07 ± 0.42 nmol/mg of protein
Nitrites, hippocampus ([2]; Group No. 2 (morphine)): 6.45 ± 0.69 nmol/mg of protein
Nitrites, hypothalamus ([2]; Group No. 2 (morphine)): 4.62 ± 0.71 nmol/mg of protein
